The subject of the experiment is DNBS-induced colitis. As to the kind of experiment: In vivo assay: DNBS-induced distal colitis in rats. The conditions noted are these: DNBS-treated rats, 10 mg/kg i.p. More on the design: species or system Male Wistar rats. On the procedure: Male Wistar rats (170-190 g, provided by Chinese academy of science animal center, Shanghai) were housed (7˜8 rats per cage) in a controlled environment and fed with standard rodent chow and water. Distal colitis was induced to the rats according to the procedure described in Hogaboam C. M., European Journal of Pharmacology, 1996, 309: 261-269. Briefly, the rats were anaesthetized with 1% pentobarbital sodium. 2,4-Dinitrobenzene sulfonic acid (DNBS) in 0.25 ml of 30% ethanol (v/v) was introduced into the colon (8 cm proximal to the anus) via a PE 50 cannula. In the control group (blank-control), 30% ethanol (v/v), in stead of DNBS in ethanol, was introduced. Andrographolide (10 mg/kg, i.p.) was administered to a group of DNBS-treated rats 24 hours and 2 hours prior to the colitis induction and once daily thereafter for 5 days. The rats were weighed daily. All rats were sacrificed 6 days after the colitis induction, and colon, spleen, and thymus were removed and weighed. The colon weight/body weight ratio, spleen weight/body weight ratio, and thymus weight/body weight ratio were calculated. Samples of colon tissues located precisely 2 cm above the anal canal were obtained, fixed in 10% neutral-buffered formalin, embedded in paraffin, sectioned, and stained with hematoxylin/eosin. The samples were examined under microscope to determine severity of the lesions.

The results in this text go back to patent US7625945B2, “Andrographolide and analogues as inhibitors of TNFα and IL-1β expression” (Hutchison MediPharma Enterprises Ltd., priority 2004, dated 2009).

As to `C=C1CC[C@@H]2[C@](C)(CO)[C@H](O)CC[C@@]2(C)[C@@H]1C/C=C1/C(=O)OC[C@H]1O` [andrographolide], the “overall effect on DNBS-induced colitis” value is on record as “effectively alleviated or even cured”. Also, the “microscopic examination of colon: severity of inflammation” value (colon sections hematoxylin/eosin, 6 days after induction) was “much less severe inflammation”. Further, for the setting “treatment for 6 days”, the “colon weight/body weight ratio” value is on record as “decreased” and the “wasting syndrome (weight loss, diarrhea)” value was “alleviated wasting syndrome”.
